{
  "source": "patent US6395684B1",
  "about": "“Selective herbicides based on a substituted phenyl sulfonyl amino carbonyl triazolinone” (Bayer Aktiengesellschaft, priority 1998, dated 2002)",
  "type_in_all_cases": "in vivo",
  "key": {"Agropyron": {"tested_on": "Agropyron", "assay": "Pre-emergence test/greenhouse", "settings": "15 g ai./ha, greenhouse, after three weeks", "protocol": "(§1) Pre-emergence Test/greenhouse Solvent: 5 parts by weight of acetone Emulsifier: 1 part by weight of alkylaryl polyglycol ether To produce a suitable preparation of active compound, 1 part by weight of active compound is mixed with the stated amount of solvent, the stated amount of emulsifier is added and the concentrate is diluted with water to the desired concentration. Seeds of the test plants are sown in normal soil. After about 24 hours, the soil is sprayed with the preparation of active compound such that the particular amount of active compound desired is applied per unit area. The concentration of the spray liquor is chosen so that the particular amount of active compound desired is applied in 500 litres of water per hectare. After three weeks, the degree of damage to the plants is tested in % damage in comparison to the development of the untreated control. The figures denote: 0% no effect (like untreated control) 100%=total destruction"}, "Alopecurus": {"tested_on": "Alopecurus", "assay": "Pre-emergence test/greenhouse", "settings": "greenhouse, after three weeks", "protocol": "as §1"}, "Amaranthus": {"tested_on": "Amaranthus", "assay": "Pre-emergence test/greenhouse", "settings": "15 g ai./ha, greenhouse, after three weeks", "protocol": "as §1"}, "Avena": {"tested_on": "Avena", "assay": "Pre-emergence test/greenhouse", "settings": "greenhouse, after three weeks", "protocol": "as §1"}, "Bromus": {"tested_on": "Bromus", "assay": "Pre-emergence test/greenhouse", "settings": "greenhouse, after three weeks", "protocol": "as §1"}, "Lolium": {"tested_on": "Lolium", "assay": "Pre-emergence test/greenhouse", "settings": "30 g ai./ha, greenhouse, after three weeks", "protocol": "as §1"}, "Poa": {"tested_on": "Poa", "assay": "Pre-emergence test/greenhouse", "settings": "15 g ai./ha, greenhouse, after three weeks", "protocol": "as §1"}, "Setaria": {"tested_on": "Setaria", "assay": "Pre-emergence test/greenhouse", "settings": "30 g ai./ha, greenhouse, after three weeks", "protocol": "as §1"}, "Sinapis": {"tested_on": "Sinapis", "assay": "Pre-emergence test/greenhouse", "settings": "15 g ai./ha, greenhouse, after three weeks", "protocol": "as §1"}, "Wheat [1]": {"tested_on": "Wheat", "assay": "Pre-emergence test/greenhouse", "settings": "greenhouse; for degree of damage to the plants (% damage in comparison to the untreated control): Wheat, after three weeks", "protocol": "as §1"}, "winter wheat": {"tested_on": "winter wheat", "assay": "Post-emergence tests/outdoors (Example D, USA), crop compatibility", "settings": "42 g a.i./ha to 45 g a.i./ha, post-emergence (autumn), outdoors, with surface-active substances (SAS), 78 tests", "protocol": "The active compound was applied by the post-emergence method (spring) across the area by the spray method, with an average droplet size. To produce a useful preparation of active compound, the active compound was formulated as 70 WP or 70 WG (70% w/w water-dispersible powder or granules) and applied with customary amounts of water. To assess the crop compatibility, from 1 to 8 weeks after the treatment, plant growth inhibitions or […] of the leaf area were assessed in % damage in comparison to the development of the untreated control. At different intervals after the treatment, the herbicidal activity was assessed as % reduction in comparison to the untreated control, based on the weed development. The figures denote: 0%=no damage of the crops or no herbicidal effect, 100%=total destruction of the crops or the weeds. Post-emergence Tests/outdoors The sodium salt of the compound of the formula (I) was tested under outdoor conditions in the main cultivation areas of winter wheat in the USA (Pacific Northwest, North Central Area, Central Plains) against economically important weeds. The design, the practice and the evaluation of the experiments corresponded to Example C. The active compound was applied in autumn. Wetting of the plants was improved by addition of commercial surface-active substances (SAS) in the concentrations recommended by the respective manufacturer."}, "Phalaris minor": {"tested_on": "Phalaris minor", "assay": "Post-emergence test/outdoors (Example E, California)", "settings": "42 g a.i./ha to 45 g a.i./ha, + SAS, outdoors, irrigation wheat growing area, 2 tests"}, "Wheat [2]": {"tested_on": "Wheat", "assay": "Post-emergence test/outdoors (Example E, California), crop compatibility", "settings": "42 g a.i./ha to 45 g a.i./ha, + SAS, outdoors, 7 tests"}},
  "note": "Structures can show the parent of a compound that is named as a salt.",
  "data": [
    {"smiles": "CCCOc1nn(C(=O)NS(=O)(=O)c2ccccc2C(=O)OC)c(=O)n1C", "note": "[(I)-Na-salt, 2-(2-methoxycarbonyl-phenylsulphonylaminocarbonyl)-4-methyl-5-propoxy-2,4-dihydro-3H-1,2,4-triazol-3-one]", "values": [
      {"measurement": "degree of damage to the plants (% damage in comparison to the untreated control)", "setting": "Agropyron", "value": 90, "unit": "%"},
      {"measurement": "degree of damage to the plants (% damage in comparison to the untreated control)", "setting": "Alopecurus; 15 g ai./ha", "value": 95, "unit": "%"},
      {"measurement": "degree of damage to the plants (% damage in comparison to the untreated control)", "setting": "Alopecurus; 30 g ai./ha", "value": 95, "unit": "%"},
      {"measurement": "degree of damage to the plants (% damage in comparison to the untreated control)", "setting": "Amaranthus", "value": 95, "unit": "%"},
      {"measurement": "degree of damage to the plants (% damage in comparison to the untreated control)", "setting": "Avena; 15 g ai./ha", "value": 80, "unit": "%"},
      {"measurement": "degree of damage to the plants (% damage in comparison to the untreated control)", "setting": "Avena; 30 g ai./ha", "value": 90, "unit": "%"},
      {"measurement": "degree of damage to the plants (% damage in comparison to the untreated control)", "setting": "Bromus; 15 g ai./ha", "value": 90, "unit": "%"},
      {"measurement": "degree of damage to the plants (% damage in comparison to the untreated control)", "setting": "Bromus; 30 g ai./ha", "value": 90, "unit": "%"},
      {"measurement": "degree of damage to the plants (% damage in comparison to the untreated control)", "setting": "Lolium", "value": 80, "unit": "%"},
      {"measurement": "degree of damage to the plants (% damage in comparison to the untreated control)", "setting": "Poa", "value": 90, "unit": "%"},
      {"measurement": "degree of damage to the plants (% damage in comparison to the untreated control)", "setting": "Setaria", "value": 90, "unit": "%"},
      {"measurement": "degree of damage to the plants (% damage in comparison to the untreated control)", "setting": "Sinapis", "value": 90, "unit": "%"},
      {"measurement": "degree of damage to the plants (% damage in comparison to the untreated control)", "setting": "Wheat [1]; 15 g ai./ha", "value": 0, "unit": "%"},
      {"measurement": "degree of damage to the plants (% damage in comparison to the untreated control)", "setting": "Wheat [1]; 30 g ai./ha", "value": 0, "unit": "%"},
      {"measurement": "compatibility with crop plants (wheat), in words", "setting": "Wheat [1]; sodium salt of (I) at 15 g/ha to 60 g/ha", "value": "very good compatibility"},
      {"measurement": "Damage to the crop (wheat)", "setting": "winter wheat", "value": 2, "unit": "%"},
      {"measurement": "herbicidal effect (%)", "setting": "Phalaris minor", "value": 93, "unit": "%"},
      {"measurement": "Damage to the crop (wheat)", "setting": "Wheat [2]", "value": 5, "unit": "%"}
    ]}
  ]
}
